Laboratory results as given in EP1129097B1, “NOVEL TYPE CONDENSED PYRIDAZINONE COMPOUNDS” (GYOGYSZERKUTATO INTEZET KFT., priority 1998, dated 2000).

Assays:
[1] = tested on: scopolamine-induced memory-deficit in rats; test: passive avoidance test, counter-balancing scopolamine-induced memory-deficit; format: in vivo; details: oral doses of 50 mg/kg
Method: The memory-enhancing effect of the compounds according to the invention was measured by counter-balancing the scopolamine-induced memory-deficit in rats, with oral doses of 50 mg/kg, in the passive avoidance test published by Cumin, R. et al. [Psychopharmacology, 78, 104 (1982)].

[2] = tested on: AMPA; test: AMPA-induced spreading depression of chick retina; details: concentration of 20 µM
Method: The AMPA antagonistic effect of the compounds was also tested on spreading depression of chick retina (Sheardown, M. J.: Brain Res., 1993, 607, 189) in a concentration of 20 µM.

SMILES: Cn1ncc2c(c1=O)SCCNC2C(=O)c1ccccc1 (stereo not shown) [Example 3, 5-Benzoyl-8-methyl-2,3,4,5-tetrahydro-9(8H)-pyridazino[4,5-b][1,5]thiazepinone]
- Memory improvement compared to amnesic control (%) [1]: 100%
- Antagonistic effect on AMPA-induced spreading depression (%) [2]: 10%

SMILES: O=c1c2c(cnn1CC=Cc1ccccc1)N(Cc1ccccc1)CCCO2 [Example 7, 5-Benzyl-8-cynnamyl-2,3,4,5-tetrahydro-9(8H)-pyridazino[4,5-b] [1,5]oxazepinone]
- Memory improvement compared to amnesic control (%) [1]: 250%
- Antagonistic effect on AMPA-induced spreading depression (%) [2]: 16%
